Laboratory results published in patent US11426402B2, “IRE1 activating compounds for use in therapy” (The Scripps Research Institute, priority 2019, dated 2022).

Assays:
XBP1s = assay: Overlap of compound-induced genes with dox-dependent XBP1s activation in HEK293DAX cells; type: cell-based, human
Protocol: (§1) Cells were lysed and total RNA collected using the RNeasy mini kit, according to manufacturer's instructions (Qiagen). Conventional RNA-seq was conducted via BGI Americas on the BGI Proprietary platform, providing single-end 50 bp reads at 20 million reads per sample. Alignment of sequencing data was done using DNAstar Lasergene SeqManPro to the GRCh37. p 13 human genome reference assembly, and assembly data were imported into ArrayStar 12.2 with QSeq (DNAStar Inc.) to quantify the gene expression levels and normalization to reads per kilobase per million (RPKM). Differential expression analysis and statistical significance calculations between different conditions was assessed using “DESeq” in R, compared to vehicle-treated cells, using a standard negative binomial fit of the RPKM data to generate Fold Change quantifications.
These cells stably express both doxycycline (dox)-inducible XBP1s and trimethoprim (TMP) regulated DHFR.ATF6, allowing stress-independent activation of XBP1s and/or ATF6 signaling through addition of the activating ligands dox or TMP, respectively^8.

extracellular Aβ = assay: Aβ in media conditioned on CHO 7WD10 cells (wild-type APP); type: cell-based; settings: CHO 7WD10, APP WT
Protocol: (§2) 7PA2 or 7WD10 cells were cultured on 96-well plates (Corning) and treated with IRE1 activating compounds +/−4 μ8c overnight. The medium was then replaced at 50% volume with treatment remaing, culture medium was collected after 24 hours. The medium was analyzed by an AP ELISA as follows. Monoclonal 6E10 anti-Aβ(residues 1-17) mouse IgG1, (Biolegend) was coated in […] carbonate buffer, pH 9.6, at 4° C. overnight on high binding assay black plates (Costar), washed with TBST (tris buffered saline with 0.05% Tween 20) and blocked with 5% non-fat milk in TBST. Samples and standards (condition 7PA2 media) were incubated for 1.5 hr, followed by addition of 4G8 antibody [anti-Aβ residues 17-24, mouse IgG2b (Biolegend)] conjugated to horseradish peroxidase (hrp) and incubated for 1.5 hr at 25° C. After washing, ABM substrate was added, followed by detection with an absorbance plate reader.
(§3) ELISA was used to monitor Aβ in media conditioned on a CHO cell line stably expressing the destabilized, disease-associated V717F APP mutant (CHO^7PA2)^45 treated with or without compounds 198, 474, and 970. […] The reduction in A secretion can be attributed to IRE1 activation because the reduced extracellular accumulation of Aβ is blocked by co-treatment with the active site IRE1 inhibitor 4 μ8c (FIG. 5A).

CHO 7WD10 cells = assay: CHO 7WD10 viability; type: cell-based
secreted Aβ = assay: Aβ ELISA of media conditioned on CHO 7PA2 cells (V717F APP); type: cell-based; settings: CHO 7PA2, 10 μM
Protocol: FIGS. 5A-5D. […] Cells were treated for 18 hours, media was then replaced and conditioned in the presence of treatments for 24 hours before harvesting for ELISA assay. Error bars represent SEM for n=3 replicates. Statistics calculated from one-tailed Student's t-test. *p<0.05, **p<0.01, ***p<0.001 (FIG. 5A). Quantification of media and lysate immunoblots from 474 treatment (10 μM) of APP. Error bars represent Standard Deviation for n=3 replicates. Statistics calculated from one-tailed Student's t-test. *p<0.05, **p<0.01 ***p<0.001 (FIG. 5B). Plot showing fraction of total remaining APP at each time point after S35 metabolic labeling of newly synthesized protein, accounting for the sum of APP in lysate and media. Error bars represent Standard Deviation for n=3 replicates. Statistics calculated from one-tailed Student's t-test. *p<0.05, **p<0.01, ***p<0.001 (FIG. 5C). Plot showing fraction of secreted APP collected at 2 hours after metabolic labeling. Error bars represent Standard Deviation for n=3 replicates. Statistics calculated from one-tailed Student's t-test. *p<0.05, **p<0.01, ***p<0.001 (FIG. 5D).
as §2, §3

[1] = tested on: stress-responsive signaling pathways; assay: Gene Ontology and stress-responsive geneset analysis of RNAseq in HEK293T cells; type: cell-based, human
Protocol: as §1

CHO 7PA2 cells = assay: CHO 7PA2 viability; type: cell-based
IRE1 = IRE1 (Homo sapiens, UniProt O75460); assay: IRE1 phosphorylation by Phos-tag SDS-PAGE and immunoblotting in HEK293T cells; type: cell-based; settings: test compound alone, 10 μM, 4 hours
IRE1, sequence (O75460 19-977): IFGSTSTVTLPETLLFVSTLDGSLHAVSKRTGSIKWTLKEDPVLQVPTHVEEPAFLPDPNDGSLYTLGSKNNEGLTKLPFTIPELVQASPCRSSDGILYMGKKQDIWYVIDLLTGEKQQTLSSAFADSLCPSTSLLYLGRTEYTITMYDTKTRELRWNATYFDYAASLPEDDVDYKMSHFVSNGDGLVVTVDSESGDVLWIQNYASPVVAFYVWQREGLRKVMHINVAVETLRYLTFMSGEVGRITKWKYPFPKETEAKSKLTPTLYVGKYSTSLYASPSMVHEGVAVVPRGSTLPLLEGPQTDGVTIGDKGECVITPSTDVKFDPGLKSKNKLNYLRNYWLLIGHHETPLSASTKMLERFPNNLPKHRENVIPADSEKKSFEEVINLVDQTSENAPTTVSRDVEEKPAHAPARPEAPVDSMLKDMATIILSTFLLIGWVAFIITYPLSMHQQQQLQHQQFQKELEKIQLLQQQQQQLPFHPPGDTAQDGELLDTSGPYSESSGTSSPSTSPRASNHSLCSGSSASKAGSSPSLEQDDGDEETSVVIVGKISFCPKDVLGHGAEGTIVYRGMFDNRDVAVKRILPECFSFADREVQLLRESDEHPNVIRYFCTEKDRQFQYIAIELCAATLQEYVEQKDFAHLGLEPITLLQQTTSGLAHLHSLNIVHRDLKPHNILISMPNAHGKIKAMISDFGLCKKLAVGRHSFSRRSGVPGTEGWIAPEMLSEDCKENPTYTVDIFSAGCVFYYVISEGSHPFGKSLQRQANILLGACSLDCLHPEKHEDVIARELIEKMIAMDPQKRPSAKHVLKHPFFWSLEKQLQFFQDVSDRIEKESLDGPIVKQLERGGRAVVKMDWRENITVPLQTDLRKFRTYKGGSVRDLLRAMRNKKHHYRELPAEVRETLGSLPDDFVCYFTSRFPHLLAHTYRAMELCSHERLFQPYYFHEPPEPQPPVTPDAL
Protocol: FIG. 3A-FIG. 3D. […] Error bars show SEM for n=3. […] Error bars show SEM for n=3. […] Error bars show SEM for n=3.
Cell lysates were prepared as previously described in RIPA buffer (50 mM Tris, pH 7.5, 150 mM NaCl, 0.1% SDS, 1% Triton X-100, 0.5% deoxycholate and protease inhibitor cocktail (Roche). Total protein concentration in cellular lysates was normalized using the Bio-Rad protein assay. Lysates were then denatured with 1× Laemmli buffer+100 mM DTT and boiled before being separated by SDS-PAGE. Samples were transferred onto nitrocellulose membranes (Bio-Rad) for immunoblotting and blocked with 5% milk in Tris-buffered saline, 0.5% Tween-20 (TBST) following incubation overnight at 4° C. with primary antibodies. Membranes were washed in TBST, incubated with IR-Dye conjugated secondary antibodies and analyzed using Odyssey Infrared Imaging System (LI-COR Biosciences). Quantification was carried out with LI-COR Image Studio software.
Compounds that activate IRE1 through binding the IRE1 kinase active site and inhibiting IRE1 autophosphorylation can elicit off-target activity likely associated with binding to other protein kinases.^20, 35, 36 Thus, the purpose of this example was to define the dependence of the present compounds on IRE1 kinase activity. HEK293T cells were treated with compound 198, 474, or 970 in the absence or presence of Tg, and IRE1 phosphorylation was monitored by using Phos-tag SDS-PAGE and immunoblotting. As a control, cells were treated with APY29—an IRE1 kinase site inhibitor that allosterically activates the IRE1 RNAse^20 in the absence or presence of Tg.

XBP1 splicing = XBP1 splicing in wild-type and Ire1-deficient MEF cells; type: cell-based, mouse; settings: for XBP1 splicing: Ire1-deficient MEF cells; for IRE1-dependent XBP1 splicing: wild-type MEF cells
Protocol: To amplify the spliced and unspliced XBP1 mRNA, XBP1 primers were used as described previously.^21 PCR products were electrophoresed on 2.5% agarose gel. GAPDH (forward 5′[…]3′, reverse 5′[…]3′) was used as a loading control. The size difference between the spliced and the unspliced XBP1 is 26 nucleotides.
Compounds 474, 198, and 970 were selected as exemplary hits based on their selective IRE1-depedendent induction of DNAJB9, their EC50 of XBP1-RLuc activation of <3 μM and their high maximal activation of IRE1signaling measured by both XBP1s-RLuc activity and DNAJB9 expression (>50% that observed with Tg). […] However, this splicing was not observed in Ire1-deficient MEF cells, further confirming that these compounds increase XBP1 splicing by an IRE1-dependent mechanism.

## CCOC(CNC(=O)C1CCCN(Cc2nc(-c3ccc(Cl)cc3)oc2C)C1)OCC (stereo not drawn) [Compound 198]
XBP1s
  overlap of genes induced >1.2 fold with dox-dependent XBP1s activation: less overlap
Extracellular Aβ
  extracellular Aβ in conditioned media: reduced extracellular Aβ
CHO 7WD10 cells
  cellular viability: without impacting cellular viability
Secreted Aβ
  Aβ in conditioned media relative to control conditioned media: 50%
[1]
  Gene Ontology analysis of induced genes: primarily induce expression of genes annotated with GO terms related to ER stress and the UPR
  activation of other stress responsive signaling pathways apart from IRE1/XBP1s: to a lesser extent
CHO 7PA2 cells
  CHO 7PA2 viability: did not significantly influence
IRE1
  phosphorylated IRE1: increased phosphorylated IRE1
XBP1 splicing
  XBP1 splicing: not observed
  IRE1-dependent XBP1 splicing: increased

## Cc1ccc(OCCN(C)C(=O)Cn2cc(NC(=O)CCOc3ccccc3)cn2)cc1 [Compound 474]
XBP1s
  overlap of genes induced >1.2 fold with dox-dependent XBP1s activation: > 80%
  top 100 induced genes overlapping with genes induced by dox-dependent XBP1s activation: majority
Extracellular Aβ
  extracellular Aβ in conditioned media: reduced extracellular Aβ
CHO 7WD10 cells
  cellular viability: without impacting cellular viability
Secreted Aβ
  Aβ in conditioned media relative to control conditioned media: 50%
[1]
  Gene Ontology analysis of induced genes: primarily induce expression of genes annotated with GO terms related to ER stress and the UPR
  activation of other stress responsive signaling pathways apart from IRE1/XBP1s: do not significantly activate
CHO 7PA2 cells
  CHO 7PA2 viability: did not significantly influence
IRE1
  phosphorylated IRE1: increased phosphorylated IRE1
XBP1 splicing
  XBP1 splicing: not observed
  IRE1-dependent XBP1 splicing: increased

## O=C(CN(Cc1ccc(Cl)cc1)S(=O)(=O)c1cccnc1)N1CCc2ccccc21 [Compound 970]
XBP1s
  induction of most non-overlapping genes: < 1.3 fold
  overlap of genes induced >1.2 fold with dox-dependent XBP1s activation: > 60%
  top 100 induced genes overlapping with genes induced by dox-dependent XBP1s activation: majority
Extracellular Aβ
  extracellular Aβ in conditioned media: reduced extracellular Aβ
CHO 7WD10 cells
  cellular viability: without impacting cellular viability
Secreted Aβ
  Aβ in conditioned media relative to control conditioned media: 50%
[1]
  Gene Ontology analysis of induced genes: primarily induce expression of genes annotated with GO terms related to ER stress and the UPR
  activation of other stress responsive signaling pathways apart from IRE1/XBP1s: do not significantly activate
CHO 7PA2 cells
  CHO 7PA2 viability: did not significantly influence
IRE1
  phosphorylated IRE1: increased phosphorylated IRE1
XBP1 splicing
  XBP1 splicing: not observed
  IRE1-dependent XBP1 splicing: increased
